Experimental data reported in patent US10898475B2, “Bach1 inhibitors in combination with Nrf2 activators and pharmaceutical compositions thereof” (vTv Therapeutics LLC, priority 2014, dated 2021).

Test system: HMOX1 in Normal Human Lung Fibroblasts (NHLF)
Assay: HMOX1 Protein Expression (immunostaining, fold induction or % positive cells over DMSO)
Details: for Hill slope of DMF dose response curves in Table 2: % Positive HMOX

- Fold Induction of HMOX (Cpd. 0.019 uM, DMF 0 uM): 2.08 fold
- Fold Induction of HMOX (Cpd. 0.019 uM, DMF 0.03 uM): 1.31 fold
- Fold Induction of HMOX (Cpd. 0.019 uM, DMF 0.1 uM): 1.23 fold
- Fold Induction of HMOX (Cpd. 0.019 uM, DMF 0.3 uM): 1.44 fold
- Fold Induction of HMOX (Cpd. 0.019 uM, DMF 1 uM): 2.17 fold
- Fold Induction of HMOX (Cpd. 0.019 uM, DMF 3 uM): 3.55 fold
- Fold Induction of HMOX (Cpd. 0.019 uM, DMF 10 uM): 5.12 fold
- Fold Induction of HMOX (Cpd. 0.019 uM, DMF 30 uM): 4.90 fold
- Fold Induction of HMOX (Cpd. 0.039 uM, DMF 0 uM): 2.51 fold
- Fold Induction of HMOX (Cpd. 0.039 uM, DMF 0.03 uM): 1.81 fold
- Fold Induction of HMOX (Cpd. 0.039 uM, DMF 0.1 uM): 1.52 fold
- Fold Induction of HMOX (Cpd. 0.039 uM, DMF 0.3 uM): 1.81 fold
- Fold Induction of HMOX (Cpd. 0.039 uM, DMF 1 uM): 2.60 fold
- Fold Induction of HMOX (Cpd. 0.039 uM, DMF 3 uM): 4.00 fold
- Fold Induction of HMOX (Cpd. 0.039 uM, DMF 10 uM): 5.64 fold
- Fold Induction of HMOX (Cpd. 0.039 uM, DMF 30 uM): 5.52 fold
- Fold Induction of HMOX (Cpd. 0.078 uM, DMF 0 uM): 4.34 fold
- Fold Induction of HMOX (Cpd. 0.078 uM, DMF 0.03 uM): 2.35 fold
- Fold Induction of HMOX (Cpd. 0.078 uM, DMF 0.1 uM): 2.87 fold
- Fold Induction of HMOX (Cpd. 0.078 uM, DMF 0.3 uM): 3.21 fold
- Fold Induction of HMOX (Cpd. 0.078 uM, DMF 1 uM): 3.83 fold
- Fold Induction of HMOX (Cpd. 0.078 uM, DMF 3 uM): 4.20 fold
- Fold Induction of HMOX (Cpd. 0.078 uM, DMF 10 uM): 6.52 fold
- Fold Induction of HMOX (Cpd. 0.078 uM, DMF 30 uM): 4.80 fold
- Fold Induction of HMOX (Cpd. 0.156 uM, DMF 0 uM): 6.46 fold
- Fold Induction of HMOX (Cpd. 0.156 uM, DMF 0.03 uM): 5.22 fold
- Fold Induction of HMOX (Cpd. 0.156 uM, DMF 0.1 uM): 4.89 fold
- Fold Induction of HMOX (Cpd. 0.156 uM, DMF 0.3 uM): 5.17 fold
- Fold Induction of HMOX (Cpd. 0.156 uM, DMF 1 uM): 6.04 fold
- Fold Induction of HMOX (Cpd. 0.156 uM, DMF 3 uM): 7.69 fold
- Fold Induction of HMOX (Cpd. 0.156 uM, DMF 10 uM): 7.50 fold
- Fold Induction of HMOX (Cpd. 0.156 uM, DMF 30 uM): 6.18 fold
Structure (SMILES): Cn1c(Nc2nc3ccc(C(F)(F)F)cc3s2)nc2cc(C(=O)NCCOCCO)ccc21 [HPP-D, 1-Methyl-2-(6-trifluoromethyl-benzothiazol-2-ylamino)-1H-benzoimidazole-5-carboxylic acid [2-(2-hydroxy-ethoxy)-ethyl]-amide]
- Hill slope of DMF dose response curves in Table 2 (Bach1 Inhibitor Conc. 0.019 uM): 2.23
- Hill slope of DMF dose response curves in Table 2 (Bach1 Inhibitor Conc. 0.039 uM): 1.69
- Hill slope of DMF dose response curves in Table 2 (Bach1 Inhibitor Conc. 0.078 uM): 0.90
- Hill slope of DMF dose response curves in Table 2 (Bach1 Inhibitor Conc. 0.156 uM): 0.23
- % Cells Positive HMOX (Cpd. 0.019 uM, DMF 0 uM): 19.42%
- % Cells Positive HMOX (Cpd. 0.019 uM, DMF 0.03 uM): 4.94%
- % Cells Positive HMOX (Cpd. 0.019 uM, DMF 0.1 uM): 4.52%
- % Cells Positive HMOX (Cpd. 0.019 uM, DMF 0.3 uM): 7.63%
- % Cells Positive HMOX (Cpd. 0.019 uM, DMF 1 uM): 26.41%
- % Cells Positive HMOX (Cpd. 0.019 uM, DMF 3 uM): 80.18%
- % Cells Positive HMOX (Cpd. 0.019 uM, DMF 10 uM): 96.12%
- % Cells Positive HMOX (Cpd. 0.019 uM, DMF 30 uM): 84.02%
- % Cells Positive HMOX (Cpd. 0.039 uM, DMF 0 uM): 28.04%
- % Cells Positive HMOX (Cpd. 0.039 uM, DMF 0.03 uM): 11.95%
- % Cells Positive HMOX (Cpd. 0.039 uM, DMF 0.1 uM): 6.75%
- % Cells Positive HMOX (Cpd. 0.039 uM, DMF 0.3 uM): 18.66%
- % Cells Positive HMOX (Cpd. 0.039 uM, DMF 1 uM): 38.70%
- % Cells Positive HMOX (Cpd. 0.039 uM, DMF 3 uM): 78.65%
- % Cells Positive HMOX (Cpd. 0.039 uM, DMF 10 uM): 99.17%
- % Cells Positive HMOX (Cpd. 0.039 uM, DMF 30 uM): 91.91%
- % Cells Positive HMOX (Cpd. 0.078 uM, DMF 0 uM): 73.95%
- % Cells Positive HMOX (Cpd. 0.078 uM, DMF 0.03 uM): 33.51%
- % Cells Positive HMOX (Cpd. 0.078 uM, DMF 0.1 uM): 44.61%
- % Cells Positive HMOX (Cpd. 0.078 uM, DMF 0.3 uM): 61.50%
- % Cells Positive HMOX (Cpd. 0.078 uM, DMF 1 uM): 84.85%
- % Cells Positive HMOX (Cpd. 0.078 uM, DMF 3 uM): 90.28%
- % Cells Positive HMOX (Cpd. 0.078 uM, DMF 10 uM): 97.73%
- % Cells Positive HMOX (Cpd. 0.078 uM, DMF 30 uM): 91.28%
- % Cells Positive HMOX (Cpd. 0.156 uM, DMF 0 uM): 96.31%
- % Cells Positive HMOX (Cpd. 0.156 uM, DMF 0.03 uM): 92.53%
- % Cells Positive HMOX (Cpd. 0.156 uM, DMF 0.1 uM): 88.16%
- % Cells Positive HMOX (Cpd. 0.156 uM, DMF 0.3 uM): 94.48%
- % Cells Positive HMOX (Cpd. 0.156 uM, DMF 1 uM): 97.74%
- % Cells Positive HMOX (Cpd. 0.156 uM, DMF 3 uM): 99.20%
- % Cells Positive HMOX (Cpd. 0.156 uM, DMF 10 uM): 100.00%
- % Cells Positive HMOX (Cpd. 0.156 uM, DMF 30 uM): 92.22%
- combination effect in terms of the % HMOX positive cells (combination with DMF at concentrations below their maximum effect (Table 2)): additive or greater than additive
- change of Hill slope of the DMF dose response curve (FIG. 5) (upon increasing amounts of the Bach1 Inhibitor): reduced
